Test results published in patent publication EP0428132A1, “Pradimicin derivatives” (Bristol-Myers Squibb Company, priority 1989, dated 1991).
In brackets after ≈: the same amount, converted by molar mass.

What was measured:
Assay in all cases: In vitro antifungal activity, serial agar dilution method (Table 1)
Format in all cases: cell-based
[1] = system: Cryptococcus neoformans IAM4514; conditions: Cryptococcus neoformans, IAM4514; Sabouraud dextrose agar (pH 7.0); 28°C for 40 hours
Experimental: (§1) The inoculum size was adjusted to 10⁶ cells/ml, and a volume of approximately 0.003 ml of fungal suspension was applied to the surface of the antibiotic containing agar plates with a multiinoculator. After incubation, the lowest concentration of antibiotic causing virtually complete inhibition of fungal growth was determined as the minimum inhibitory concentration (MIC). Table 1. [table]

Candida albicans A9540 = conditions: Candida albicans, A9540; Sabouraud dextrose agar (pH 7.0); 28°C for 40 hours
Experimental: as §1

Candida albicans IAM4888 = conditions: Candida albicans, IAM4888; Sabouraud dextrose agar (pH 7.0); 28°C for 40 hours
Experimental: as §1

[2] = system: Sprotricosis schenckii IFO8158; conditions: Sabouraud dextrose agar (pH 7.0); 28°C for 40 hours; read-out: MIC, Sprotricosis schenckii IFO8158
Experimental: as §1

[3] = system: Aspergillus fumigatus IAM2530; conditions: Aspergillus fumigatus, IAM2530; Sabouraud dextrose agar (pH 7.0); 28°C for 40 hours
Experimental: as §1

[4] = system: Fusarium moniliforme A2284; conditions: Fusarium verticillioides, A2284; Sabouraud dextrose agar (pH 7.0); 28°C for 40 hours
Experimental: as §1

[5] = system: Trichophyton mentagrophytes #4329; conditions: Trichophyton mentagrophytes; Sabouraud dextrose agar (pH 7.0); 28°C for 40 hours
Experimental: as §1

Mucor spinosus IFO5317 = conditions: Sabouraud dextrose agar (pH 7.0), 28°C for 40 hours
Experimental: as §1

[6] = system: Blastomyces dermatidis D40; conditions: Blastomyces, D40; Sabouraud dextrose agar (pH 7.0); 28°C for 40 hours; read-out: MIC, Blastomyces dermatidis D40
Experimental: as §1

[7] = system: Trichophyton mentagrophytes D155; conditions: Trichophyton mentagrophytes, D155; Sabouraud dextrose agar (pH 7.0); 28°C for 40 hours
Experimental: as §1

`CN[C@@H]1[C@H](O[C@@H]2OC[C@@H](O)[C@H](O)[C@H]2O)[C@@H](O)[C@H](O[C@H]2c3cc(C)c(C(=O)N[C@H](C)C(=O)O)c(O)c3-c3c(cc4c(c3O)C(=O)c3cc(OC)cc(O)c3C4=O)[C@@H]2O)O[C@@H]1C` [Pradimicin A, reference compound] gave an MIC [1] of 0.8 µg/mL (≈ 0.951 µM), an MIC (Candida albicans A9540) of 50 µg/mL (≈ 59.5 µM) and an MIC (Candida albicans IAM4888) of 6.3 µg/mL (≈ 7.49 µM). The MIC [2] was 1.6 µg/mL (≈ 1.9 µM), the MIC [3] was 3.1 µg/mL (≈ 3.69 µM) and the MIC [4] was 3.1 µg/mL (≈ 3.69 µM). The MIC [5] was 3.1 µg/mL (≈ 3.69 µM), the MIC (Mucor spinosus IFO5317; Mucor spinosus, IFO5317) was greater than 100 µg/mL and the “Partial Inhibition, Mucor spinosus IFO5317” value (Mucor spinosus IFO5317; value in parentheses = Partial Inhibition) was 12.5 µg/mL. For the same compound, the MIC [6] was 3.1 µg/mL (≈ 3.69 µM) and the MIC [7] was 6.3 µg/mL (≈ 7.49 µM).
